“Also recorded” adds a separate entry of the source.
What was measured:
[1] = Permeability in Caco2 cell line; type: in vitro ADME; conditions: human
[2] = Stability in PBS at pH 7.4; type: physicochemical
[3] = Stability in human plasma; type: in vitro ADME
[4] = Stability in mouse plasma; type: in vitro ADME
kinases = test: proteomic off target analysis vs known kinase inhibitors; conditions: FIG. 3, against FDA-approved kinase inhibitors
From the text: Higher selectivity score means stronger off target effects.
To elucidate definitively how Csbl-1 specifically binds to ILK, we determined the crystal structure of Csbl-1/ILK complex. […] Thus our structure provides a hypothetical atomic basis for understanding why Csbl-1 binds selectively to ILK but unfavorably to EGFR (Table 1).

CYP 2D6 = CYP 2D6 (Homo sapiens (Human), UniProt P10635); test: biochemical; type: in vitro ADME; conditions: Human Liver Microsomes
CYP 1A2 = CYP 1A2 (Homo sapiens (Human), UniProt P05177); test: CYP inhibition in human liver microsomes, 1A2; type: in vitro ADME
CYP 2C19 = CYP 2C19 (Homo sapiens (Human), UniProt P33261); test: CYP inhibition in human liver microsomes, 2C19; type: in vitro ADME
[5] = Protein binding in rat plasma; type: in vitro ADME
[6] = Metabolic stability in human liver microsomes; type: in vitro ADME; conditions: for Remaining Percentage (%): Human
[7] = molecular target: ILK-PINCH-Parvin (IPP) complex (Homo sapiens (Human), UniProt Q13418); test: IPP-mediated actin bundling assay; type: biochemical; conditions: FIG. 4
From the text: Next, we set out to obtain in vitro evidence of Csbl-1. […] Mutation of L207 into bulky Trp in ILK abolished the MgATP binding to ILK and impaired the formation and morphology of actin bundles (Vaynberg et al., 2018). Using the same actin bundling assay, we examined the effect of Csbl-1 on the IPP-mediated actin bundling. […] In general, more bundles with smaller sizes were observed as a result of Csbl-1 interference. Csbl-1 would knock out MgATP at the ILK site and increase the local concentration of Mg^2+, which may impact the actin bundling process (Tang and Janmey, 1996, Vaynberg et al., 2018).

CYP 3A4-M = CYP 3A4-M (Homo sapiens (Human), UniProt P08684); test: CYP inhibition in human liver microsomes, 3A4-M; type: in vitro ADME
EGFR = EGFR (Homo sapiens (Human), UniProt P00533); test: EGFR binding affinity, EnSpire fluorescence intensity; conditions: same experimental conditions as ILK
[8] = test system: human derived patient TNBC tumor (PDX); test: TNBC PDX mice; type: in vivo; conditions: 200 mg/kg orally five times/week, in olive oil; day 27; listed as Csbl-1
Method: FIG. 8, panels A-C, show the effect of Csbl-1 on TNBC PDX mice. Csbl-1 was dissolved in olive oil. Five mice with TNBC were treated orally with Csbl-1 at 200 mg/kg five times/week vs 4 control mice without the treatment.
(§1) The next step was to evaluate the effect of Csbl-1 in mice bearing TNBC tumors. Given the fact that higher ILK expression level is correlated with poor outcome and reduced survival for TNBC patients (FIG. 6) and the above TNBC cell-based data, we decided to test whether Csbl-1 would be effective in suppressing the TNBC tumors in mice. […] Xenograft TNBC tumors were generated using MDA-MB231 on 8 mice. […] when the tumors were ˜3 mm, 4 mice were fed with Csbl-1 at 100 mg/kg five times/week and the other 4 mice (control, no drug) had no Csbl-1 treatment. […] We also examined the Csbl-1 effect on the mouse models with human derived patient TNBC tumor (PDX).

Stability in rat plasma = type: in vitro ADME
[9] = test system: Xenograft TNBC tumors (MDA-MB231); test: TNBC xenograft model (MDA-MB231); type: in vivo, mice; conditions: 100 mg/kg five times/week
Method: as §1

[10] = Metabolic stability in rat liver microsomes; type: in vitro ADME; conditions: for Remaining Percentage (%): Rat
Stability in SIF = type: physicochemical
CYP 2C8 = CYP 2C8 (Homo sapiens (Human), UniProt P10632); test: CYP inhibition in human liver microsomes, 2C8; type: in vitro ADME
Chain of CYP 2C8 (P10632 whole entry): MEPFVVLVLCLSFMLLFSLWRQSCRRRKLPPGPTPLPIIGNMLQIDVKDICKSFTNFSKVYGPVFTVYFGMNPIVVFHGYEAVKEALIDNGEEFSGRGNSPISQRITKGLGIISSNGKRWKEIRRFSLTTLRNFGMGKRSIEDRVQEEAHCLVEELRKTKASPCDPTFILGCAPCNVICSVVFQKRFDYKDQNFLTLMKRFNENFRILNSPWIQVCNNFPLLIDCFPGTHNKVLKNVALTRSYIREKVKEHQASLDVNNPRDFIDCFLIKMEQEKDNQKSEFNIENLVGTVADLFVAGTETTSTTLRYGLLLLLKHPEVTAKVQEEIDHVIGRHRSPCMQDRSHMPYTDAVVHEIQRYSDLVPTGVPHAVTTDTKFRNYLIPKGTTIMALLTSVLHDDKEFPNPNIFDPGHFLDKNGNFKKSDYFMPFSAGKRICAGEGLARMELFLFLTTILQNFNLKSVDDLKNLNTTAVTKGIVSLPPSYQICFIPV

Chain of CYP 1A2 (P05177 whole entry): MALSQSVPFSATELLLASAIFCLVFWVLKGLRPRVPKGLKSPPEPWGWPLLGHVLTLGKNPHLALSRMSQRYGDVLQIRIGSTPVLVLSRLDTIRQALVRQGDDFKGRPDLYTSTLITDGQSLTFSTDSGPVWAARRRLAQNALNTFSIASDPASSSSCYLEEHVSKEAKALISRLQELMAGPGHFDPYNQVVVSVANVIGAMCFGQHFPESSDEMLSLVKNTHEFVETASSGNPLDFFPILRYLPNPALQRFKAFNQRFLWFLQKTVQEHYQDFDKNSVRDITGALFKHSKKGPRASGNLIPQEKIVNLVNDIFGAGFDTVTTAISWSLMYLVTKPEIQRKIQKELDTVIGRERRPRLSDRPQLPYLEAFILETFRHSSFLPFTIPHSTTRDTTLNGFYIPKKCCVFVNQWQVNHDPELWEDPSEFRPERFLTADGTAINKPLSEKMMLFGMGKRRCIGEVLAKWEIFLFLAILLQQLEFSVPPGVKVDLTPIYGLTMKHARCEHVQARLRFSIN
Chain of CYP 3A4-M (P08684 whole entry): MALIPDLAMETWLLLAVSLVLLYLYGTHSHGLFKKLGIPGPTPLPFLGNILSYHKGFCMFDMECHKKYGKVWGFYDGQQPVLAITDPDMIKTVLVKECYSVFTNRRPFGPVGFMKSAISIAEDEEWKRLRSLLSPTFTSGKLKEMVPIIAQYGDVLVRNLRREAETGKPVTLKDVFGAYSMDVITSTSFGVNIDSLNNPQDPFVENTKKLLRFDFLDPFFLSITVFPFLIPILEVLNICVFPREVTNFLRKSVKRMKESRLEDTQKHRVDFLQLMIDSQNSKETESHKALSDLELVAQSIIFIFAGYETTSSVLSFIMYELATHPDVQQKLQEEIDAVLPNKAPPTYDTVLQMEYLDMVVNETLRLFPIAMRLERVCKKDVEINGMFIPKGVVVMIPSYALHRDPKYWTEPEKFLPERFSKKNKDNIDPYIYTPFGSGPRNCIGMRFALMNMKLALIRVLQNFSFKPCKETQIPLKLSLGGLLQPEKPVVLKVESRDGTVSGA
Chain of CYP 2D6 (P10635 whole entry): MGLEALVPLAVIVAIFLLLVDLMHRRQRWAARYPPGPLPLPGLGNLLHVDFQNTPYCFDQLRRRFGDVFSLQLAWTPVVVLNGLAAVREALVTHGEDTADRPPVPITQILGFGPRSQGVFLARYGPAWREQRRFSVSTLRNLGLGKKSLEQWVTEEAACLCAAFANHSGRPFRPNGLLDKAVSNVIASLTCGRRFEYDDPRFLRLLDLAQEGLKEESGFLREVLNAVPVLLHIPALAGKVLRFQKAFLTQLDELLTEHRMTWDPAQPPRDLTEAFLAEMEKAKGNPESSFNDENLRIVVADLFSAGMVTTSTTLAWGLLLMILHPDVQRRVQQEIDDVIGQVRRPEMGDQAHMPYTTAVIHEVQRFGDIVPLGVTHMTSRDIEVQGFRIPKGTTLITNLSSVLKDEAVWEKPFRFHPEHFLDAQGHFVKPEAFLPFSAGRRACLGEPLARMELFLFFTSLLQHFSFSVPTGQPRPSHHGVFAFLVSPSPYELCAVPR
Chain of ILK-PINCH-Parvin (IPP) complex (Q13418 whole entry): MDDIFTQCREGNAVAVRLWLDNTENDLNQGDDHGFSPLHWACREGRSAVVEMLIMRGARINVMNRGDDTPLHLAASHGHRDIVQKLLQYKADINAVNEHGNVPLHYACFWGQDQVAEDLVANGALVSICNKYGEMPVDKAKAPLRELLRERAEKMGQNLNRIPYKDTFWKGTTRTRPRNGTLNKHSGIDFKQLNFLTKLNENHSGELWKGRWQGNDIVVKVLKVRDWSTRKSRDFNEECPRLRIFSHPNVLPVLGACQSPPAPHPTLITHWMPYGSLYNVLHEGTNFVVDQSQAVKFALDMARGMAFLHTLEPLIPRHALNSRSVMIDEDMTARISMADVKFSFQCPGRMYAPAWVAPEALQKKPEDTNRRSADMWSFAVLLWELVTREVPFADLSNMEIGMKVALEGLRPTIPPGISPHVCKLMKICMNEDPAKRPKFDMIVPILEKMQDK
Chain of ILK-PINCH-Parvin (IPP) complex (P48059 whole entry partner): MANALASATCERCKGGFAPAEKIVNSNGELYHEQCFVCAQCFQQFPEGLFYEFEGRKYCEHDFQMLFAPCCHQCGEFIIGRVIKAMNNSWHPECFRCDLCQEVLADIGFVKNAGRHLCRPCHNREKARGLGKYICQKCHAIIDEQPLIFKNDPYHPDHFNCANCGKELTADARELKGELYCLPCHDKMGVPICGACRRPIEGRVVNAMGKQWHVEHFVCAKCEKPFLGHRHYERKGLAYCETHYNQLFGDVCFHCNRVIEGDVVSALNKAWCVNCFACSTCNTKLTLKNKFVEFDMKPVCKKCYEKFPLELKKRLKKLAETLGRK
Chain of ILK-PINCH-Parvin (IPP) complex (Q9NVD7 whole entry partner): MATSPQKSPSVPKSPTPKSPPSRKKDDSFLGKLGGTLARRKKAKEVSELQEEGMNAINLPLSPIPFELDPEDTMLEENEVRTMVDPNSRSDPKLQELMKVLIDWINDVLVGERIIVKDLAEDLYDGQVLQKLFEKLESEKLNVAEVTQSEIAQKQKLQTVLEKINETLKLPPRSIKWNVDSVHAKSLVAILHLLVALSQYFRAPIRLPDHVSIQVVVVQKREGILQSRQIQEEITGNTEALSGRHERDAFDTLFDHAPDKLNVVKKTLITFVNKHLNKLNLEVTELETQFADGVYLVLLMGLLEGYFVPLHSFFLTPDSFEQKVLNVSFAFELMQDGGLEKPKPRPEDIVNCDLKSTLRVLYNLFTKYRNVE
Chain of CYP 2C19 (P33261 whole entry): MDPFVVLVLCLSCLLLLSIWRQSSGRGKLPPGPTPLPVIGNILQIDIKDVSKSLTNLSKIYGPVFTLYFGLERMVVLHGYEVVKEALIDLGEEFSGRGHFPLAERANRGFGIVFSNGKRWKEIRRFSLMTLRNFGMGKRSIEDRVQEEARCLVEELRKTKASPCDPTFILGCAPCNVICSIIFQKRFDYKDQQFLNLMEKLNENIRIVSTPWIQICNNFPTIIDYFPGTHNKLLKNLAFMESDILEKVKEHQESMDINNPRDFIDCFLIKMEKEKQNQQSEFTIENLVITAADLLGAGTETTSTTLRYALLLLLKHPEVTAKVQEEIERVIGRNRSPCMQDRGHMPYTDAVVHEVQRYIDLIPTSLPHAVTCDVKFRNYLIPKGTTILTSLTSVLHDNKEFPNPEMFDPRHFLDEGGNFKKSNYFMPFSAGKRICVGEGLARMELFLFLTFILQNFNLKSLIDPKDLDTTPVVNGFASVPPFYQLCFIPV
Chain of EGFR (P00533 25-1210): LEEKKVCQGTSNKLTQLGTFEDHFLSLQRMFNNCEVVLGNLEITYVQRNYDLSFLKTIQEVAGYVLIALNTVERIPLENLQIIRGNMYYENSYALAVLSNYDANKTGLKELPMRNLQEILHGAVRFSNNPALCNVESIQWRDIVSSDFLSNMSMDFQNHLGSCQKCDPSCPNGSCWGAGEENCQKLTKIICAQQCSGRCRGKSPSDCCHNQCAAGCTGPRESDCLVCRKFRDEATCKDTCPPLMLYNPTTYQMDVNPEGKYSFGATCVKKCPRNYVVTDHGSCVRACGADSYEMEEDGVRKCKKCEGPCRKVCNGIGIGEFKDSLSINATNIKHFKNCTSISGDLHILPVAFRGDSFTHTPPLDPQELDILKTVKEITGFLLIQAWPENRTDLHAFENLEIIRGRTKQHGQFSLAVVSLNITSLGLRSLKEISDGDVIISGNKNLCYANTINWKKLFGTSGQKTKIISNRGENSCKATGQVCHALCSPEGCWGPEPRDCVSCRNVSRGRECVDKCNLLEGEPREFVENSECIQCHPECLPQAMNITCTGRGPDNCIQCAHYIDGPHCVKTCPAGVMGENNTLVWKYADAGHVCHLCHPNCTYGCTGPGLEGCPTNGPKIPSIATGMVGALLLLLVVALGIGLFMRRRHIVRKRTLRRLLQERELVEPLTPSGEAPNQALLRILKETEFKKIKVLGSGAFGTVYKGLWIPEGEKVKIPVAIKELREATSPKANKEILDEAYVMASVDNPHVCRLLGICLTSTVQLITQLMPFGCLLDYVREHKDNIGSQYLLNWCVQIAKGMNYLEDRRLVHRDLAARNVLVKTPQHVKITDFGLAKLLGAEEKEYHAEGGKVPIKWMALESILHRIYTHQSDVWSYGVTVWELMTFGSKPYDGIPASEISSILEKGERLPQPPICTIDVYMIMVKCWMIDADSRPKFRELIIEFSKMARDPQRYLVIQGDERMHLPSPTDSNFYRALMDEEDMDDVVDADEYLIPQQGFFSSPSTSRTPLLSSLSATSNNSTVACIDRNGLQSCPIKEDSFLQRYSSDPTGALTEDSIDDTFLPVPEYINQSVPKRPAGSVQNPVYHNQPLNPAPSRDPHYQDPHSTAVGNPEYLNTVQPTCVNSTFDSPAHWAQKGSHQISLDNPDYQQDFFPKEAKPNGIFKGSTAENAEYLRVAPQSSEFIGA

C#Cc1cc(Nc2ncnc3cc(OCCOC)ccc23)cc(OCCOCC)c1 [Compound 1]
recovery ([1]; Caco-2, Caco2, AP-BL, read-out: Recovery (%)AP-BL): 51%
recovery ([1]; Caco-2, Caco2, BL-AP, read-out: Recovery (%)BL-AP): 53.5%
efflux ratio ([1]; Caco-2, Caco2): 0.48
Papp A→B ([1]; Caco-2, Caco2, A-B): 15.4 ×10⁻⁶ cm/s
Papp B→A ([1]; Caco-2, Caco2, B-A): 7.31 ×10⁻⁶ cm/s
Remaining Percentage (%) ([2]; PBS pH 7.4, 0 min): 100.00%
Remaining Percentage (%) ([2]; PBS pH 7.4, 30 min): 102.02%
Remaining Percentage (%) ([2]; PBS pH 7.4, 60 min): 105.41%
Remaining Percentage (%) ([2]; PBS pH 7.4, 120 min): 103.04%
Remaining Percentage (%) ([2]; PBS pH 7.4, 180 min): 104.93%
Remaining Percentage (%) ([2]; PBS pH 7.4, 240 min): 99.54%
Remaining Percentage (%) ([3]; 0 min): 100.00%
Remaining Percentage (%) ([3]; 15 min): 93.79%
Remaining Percentage (%) ([3]; 30 min): 93.79%
Remaining Percentage (%) ([3]; 45 min): 90.52%
Remaining Percentage (%) ([3]; 60 min): 90.20%
Remaining Percentage (%) ([3]; 120 min): 88.56%
Remaining Percentage (%) ([4]; 0 min): 100.00%
Remaining Percentage (%) ([4]; 15 min): 96.17%
Remaining Percentage (%) ([4]; 30 min): 96.17%
Remaining Percentage (%) ([4]; 45 min): 97.56%
Remaining Percentage (%) ([4]; 60 min): 96.17%
Remaining Percentage (%) ([4]; 120 min): 93.73%
off-target effect to kinases (kinases): minimal off-target effect
IC50 (CYP 2D6): 27.6 µM
IC50 (CYP 1A2): 33.3 µM
IC50 (CYP 2C19): 10.8 µM
recovery [5]: 93.4%
fraction unbound ([5]; read-out: % Bound (converted)): 0.0083
half-life ([6]; Human Liver Microsomes): 34.8 min
microsomal CLint ([6]; Human Liver Microsomes, read-out: CLint (μL/min/mg protein)): 39.8 µL/min/mg
CLint scaled ([6]; Human Liver Microsomes, read-out: Scaled-up CLint): 49.9 mL/min/kg
Remaining Percentage (%) ([6]; With NADPH, 0 min): 100.00%
Remaining Percentage (%) ([6]; With NADPH, 15 min): 70.61%
Remaining Percentage (%) ([6]; With NADPH, 30 min): 51.77%
Remaining Percentage (%) ([6]; With NADPH, 45 min): 38.83%
Remaining Percentage (%) ([6]; With NADPH, 60 min): 30.40%
Remaining Percentage (%) ([6]; Without NADPH, 0 min): 100.00%
Remaining Percentage (%) ([6]; Without NADPH, 15 min): 98.20%
Remaining Percentage (%) ([6]; Without NADPH, 30 min): 92.81%
Remaining Percentage (%) ([6]; Without NADPH, 45 min): 89.22%
Remaining Percentage (%) ([6]; Without NADPH, 60 min): 103.59%
effect on IPP-induced actin bundles [7]: substantial change of IPP-induced actin bundles
IC50 (CYP 3A4-M): 43.8 µM
KD to EGFR (EGFR): too weak to be accurately determined
TNBC tumor growth in PDX mice [8]: effectively inhibited TNBC tumor growth; also recorded: significantly reduced
Remaining Percentage (%) (Stability in rat plasma; 0 min): 100.00%
Remaining Percentage (%) (Stability in rat plasma; 15 min): 92.93%
Remaining Percentage (%) (Stability in rat plasma; 30 min): 94.35%
Remaining Percentage (%) (Stability in rat plasma; 45 min): 93.29%
Remaining Percentage (%) (Stability in rat plasma; 60 min): 94.70%
Remaining Percentage (%) (Stability in rat plasma; 120 min): 91.52%
weight difference vs control mice [9]: no significant weight difference
half-life ([10]; Rat liver microsomes): 16 min
microsomal CLint ([10]; Rat liver microsomes, read-out: CLint (μL/min/mg protein)): 86.6 µL/min/mg
CLint scaled ([10]; Rat liver microsomes, read-out: Scaled-up CLint): 155 mL/min/kg
Remaining Percentage (%) ([10]; With NADPH, 0 min): 100.00%
Remaining Percentage (%) ([10]; With NADPH, 15 min): 45.00%
Remaining Percentage (%) ([10]; With NADPH, 30 min): 21.08%
Remaining Percentage (%) ([10]; With NADPH, 45 min): 11.69%
Remaining Percentage (%) ([10]; With NADPH, 60 min): 7.65%
Remaining Percentage (%) ([10]; Without NADPH, 0 min): 100.00%
Remaining Percentage (%) ([10]; Without NADPH, 15 min): 95.03%
Remaining Percentage (%) ([10]; Without NADPH, 30 min): 90.68%
Remaining Percentage (%) ([10]; Without NADPH, 45 min): 91.30%
Remaining Percentage (%) ([10]; Without NADPH, 60 min): 102.48%
Remaining Percentage (%) (Stability in SIF; 0 min): 100.00%
Remaining Percentage (%) (Stability in SIF; 30 min): 104.86%
Remaining Percentage (%) (Stability in SIF; 60 min): 109.34%
Remaining Percentage (%) (Stability in SIF; 120 min): 105.85%
Remaining Percentage (%) (Stability in SIF; 180 min): 108.93%
Remaining Percentage (%) (Stability in SIF; 240 min): 109.26%
IC50 (CYP 2C8): 3.24 µM

— patent US11524945B2, “Compounds for treating ILK-mediated diseases” (The Cleveland Clinic Foundation, priority 2018, dated 2022)
